The values that follow come from article PMC8916643, “Molecular physiology of pumiliotoxin sequestration in a poison frog” (PLoS ONE, 2022).

Holding throughout (experiment): CYP phenotyping panel (PTX 251D clearance)
Type in all cases: in vitro ADME

Data set [1] concerns the target T1, human recombinant CYP1A2 (Homo sapiens, UniProt P05177).
T1 construct: Eurofins Discovery Services (Eurofins Panlabs Inc) ran the assay
T1 sequence (P05177 1-516): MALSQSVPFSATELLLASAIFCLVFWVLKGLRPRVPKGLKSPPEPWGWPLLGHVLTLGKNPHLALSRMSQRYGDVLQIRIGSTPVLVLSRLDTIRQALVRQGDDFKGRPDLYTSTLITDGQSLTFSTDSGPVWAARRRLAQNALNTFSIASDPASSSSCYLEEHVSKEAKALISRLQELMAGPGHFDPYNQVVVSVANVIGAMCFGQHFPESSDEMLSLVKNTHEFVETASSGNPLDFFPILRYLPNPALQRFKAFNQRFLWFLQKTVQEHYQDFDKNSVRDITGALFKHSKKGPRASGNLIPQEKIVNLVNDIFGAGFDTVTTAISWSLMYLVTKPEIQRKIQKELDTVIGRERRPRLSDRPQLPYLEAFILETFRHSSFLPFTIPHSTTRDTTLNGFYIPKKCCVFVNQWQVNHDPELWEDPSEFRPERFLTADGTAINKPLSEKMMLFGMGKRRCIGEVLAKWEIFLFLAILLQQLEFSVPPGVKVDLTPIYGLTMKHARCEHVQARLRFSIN
Particulars: 1E-07 M PTX 251D; after 60 minutes. The procedure: (§1) Assays for human CYP activity (CYP phenotyping), CYP2D6 metabolite discovery (metID), ion channel inhibition (CiPA), and G-protein coupled receptor (GPCR) activity (gpcrMAX) were performed through Eurofins Discovery Services (Eurofins Panlabs Inc, St. Charles MO, USA). In the CYP phenotyping panel, human recombinant CYP1A2, CYP2B6, CYP2C8, CYP2C9, CYP2C19, CYP2D6, and CYP3A4 were included in the assay. A concentration of 1E-07 M of PTX 251D was tested, and the percent compound remaining was quantified at 0, 15, 30, 45, and 60 minutes using HPLC-MS/MS. As a positive control, a reference compound was used for each CYP tested (see S1 File for results). In the CYP2D6 metabolism assay, human recombinant CYP2D6 was incubated with an initial concentration of 10 μM and metabolites were quantified after 90 minutes using LC-MS/MS. Two replicates were used for the CYP phenotyping panel and one replicate was used for CYP2D6 metabolite assay. The CiPA assay was a cell-based QPatch on voltage-gated sodium channel NaV1.5 (peak and late/agonist), voltage-gated potassium channels Kv4.3/KChIP2, hERG, KCNQ1/minK, Kir2.1, and voltage-gated calcium channel Cav1.2. The concentrations of PTX 251D assayed were 3, 10, and 30 μM, and a reference compound for each channel was used (see S1 File for results and individual QPatch parameters). In the gpcrMAX assay a panel of 165 GPCRs was tested through the DiscoverX PathHunter beta-arrestin enzyme fragment complementation technology, and a concentration of 10 μM PTX 251D was tested for both agonist and antagonist activity along with a reference compound for each GPCR (see S1 File for results).

Data set [2] has as its target T2, human recombinant CYP2B6 (Homo sapiens, UniProt P20813).
T2 construct: Eurofins Discovery Services (Eurofins Panlabs Inc) ran the assay
T2 sequence (P20813 1-491): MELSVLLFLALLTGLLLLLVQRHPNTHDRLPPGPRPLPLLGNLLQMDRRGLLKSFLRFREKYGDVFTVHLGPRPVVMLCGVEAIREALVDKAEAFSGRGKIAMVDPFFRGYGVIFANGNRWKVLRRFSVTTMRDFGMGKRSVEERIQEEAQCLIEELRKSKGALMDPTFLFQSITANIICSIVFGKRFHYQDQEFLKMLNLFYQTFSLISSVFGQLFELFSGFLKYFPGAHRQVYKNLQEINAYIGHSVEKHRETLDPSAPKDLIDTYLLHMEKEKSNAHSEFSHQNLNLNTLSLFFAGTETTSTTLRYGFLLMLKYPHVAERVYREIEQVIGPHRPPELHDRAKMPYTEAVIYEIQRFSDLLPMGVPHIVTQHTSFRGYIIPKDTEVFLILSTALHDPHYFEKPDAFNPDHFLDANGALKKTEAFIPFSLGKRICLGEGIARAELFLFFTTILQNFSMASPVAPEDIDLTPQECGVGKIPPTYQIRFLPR
The settings on record: 1E-07 M PTX 251D; after 60 minutes. The procedure: as §1

The target of data set [3] is T3, human recombinant CYP2C8 (Homo sapiens, UniProt P10632).
T3 construct: Eurofins Discovery Services (Eurofins Panlabs Inc) ran the assay
T3 sequence (P10632 1-490): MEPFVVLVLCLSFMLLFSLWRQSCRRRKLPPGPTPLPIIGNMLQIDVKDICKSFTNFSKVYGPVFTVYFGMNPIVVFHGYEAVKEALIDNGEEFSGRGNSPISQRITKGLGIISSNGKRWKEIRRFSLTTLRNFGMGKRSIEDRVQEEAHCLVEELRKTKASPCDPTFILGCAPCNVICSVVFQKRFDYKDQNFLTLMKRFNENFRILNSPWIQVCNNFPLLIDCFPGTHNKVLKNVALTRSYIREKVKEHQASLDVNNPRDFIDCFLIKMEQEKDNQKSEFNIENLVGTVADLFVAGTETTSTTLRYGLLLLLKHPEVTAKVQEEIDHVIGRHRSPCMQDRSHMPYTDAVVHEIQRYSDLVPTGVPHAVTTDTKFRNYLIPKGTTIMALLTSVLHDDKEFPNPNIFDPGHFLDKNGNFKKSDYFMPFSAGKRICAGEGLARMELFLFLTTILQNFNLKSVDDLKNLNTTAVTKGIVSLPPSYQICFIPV
The settings on record: 1E-07 M PTX 251D; after 60 minutes. The method, then: as §1

The target of data set [4] is T4, human recombinant CYP2C9 (Homo sapiens, UniProt P11712).
T4 construct: Eurofins Discovery Services (Eurofins Panlabs Inc) ran the assay
The settings on record: 1E-07 M PTX 251D; after 60 minutes. The method, then:
as §1

Data set [5] addresses T5, human recombinant CYP2D6 (Homo sapiens, UniProt P10635).
T5 construct: Eurofins Discovery Services (Eurofins Panlabs Inc) ran the assay
The settings on record: 1E-07 M PTX 251D. The procedure:
as §1

The target of data set [6] is T6, human recombinant CYP3A4 (Homo sapiens, UniProt P08684).
T6 construct: Eurofins Discovery Services (Eurofins Panlabs Inc) ran the assay
The settings on record: 1E-07 M PTX 251D; after 60 minutes. The method, then:
as §1

T5 sequence (P10635 whole entry): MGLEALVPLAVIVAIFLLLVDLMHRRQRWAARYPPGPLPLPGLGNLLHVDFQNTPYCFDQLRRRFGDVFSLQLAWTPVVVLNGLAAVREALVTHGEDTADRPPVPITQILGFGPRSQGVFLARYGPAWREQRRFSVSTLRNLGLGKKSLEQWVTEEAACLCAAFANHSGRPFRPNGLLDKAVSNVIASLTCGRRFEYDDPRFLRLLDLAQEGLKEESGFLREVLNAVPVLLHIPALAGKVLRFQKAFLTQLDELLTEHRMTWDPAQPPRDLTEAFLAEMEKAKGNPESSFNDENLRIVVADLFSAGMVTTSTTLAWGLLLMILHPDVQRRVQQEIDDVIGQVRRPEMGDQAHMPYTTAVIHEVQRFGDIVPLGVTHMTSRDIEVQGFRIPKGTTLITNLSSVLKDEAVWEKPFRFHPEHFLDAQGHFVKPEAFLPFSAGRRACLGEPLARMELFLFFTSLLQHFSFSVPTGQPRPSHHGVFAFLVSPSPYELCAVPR
T6 sequence (P08684 whole entry): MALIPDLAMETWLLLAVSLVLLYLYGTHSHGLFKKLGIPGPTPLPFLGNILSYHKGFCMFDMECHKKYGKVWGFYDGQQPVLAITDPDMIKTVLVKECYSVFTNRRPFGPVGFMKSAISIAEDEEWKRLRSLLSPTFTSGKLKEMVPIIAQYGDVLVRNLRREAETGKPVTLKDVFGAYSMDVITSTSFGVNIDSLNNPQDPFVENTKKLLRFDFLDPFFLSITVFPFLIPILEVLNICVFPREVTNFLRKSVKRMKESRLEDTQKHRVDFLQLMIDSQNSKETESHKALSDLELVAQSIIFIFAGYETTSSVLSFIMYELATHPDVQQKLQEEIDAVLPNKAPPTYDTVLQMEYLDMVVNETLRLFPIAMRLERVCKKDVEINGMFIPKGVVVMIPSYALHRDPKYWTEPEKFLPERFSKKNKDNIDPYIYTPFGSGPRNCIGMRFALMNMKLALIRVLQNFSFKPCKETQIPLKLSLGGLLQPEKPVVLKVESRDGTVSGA
T4 sequence (P11712 whole entry): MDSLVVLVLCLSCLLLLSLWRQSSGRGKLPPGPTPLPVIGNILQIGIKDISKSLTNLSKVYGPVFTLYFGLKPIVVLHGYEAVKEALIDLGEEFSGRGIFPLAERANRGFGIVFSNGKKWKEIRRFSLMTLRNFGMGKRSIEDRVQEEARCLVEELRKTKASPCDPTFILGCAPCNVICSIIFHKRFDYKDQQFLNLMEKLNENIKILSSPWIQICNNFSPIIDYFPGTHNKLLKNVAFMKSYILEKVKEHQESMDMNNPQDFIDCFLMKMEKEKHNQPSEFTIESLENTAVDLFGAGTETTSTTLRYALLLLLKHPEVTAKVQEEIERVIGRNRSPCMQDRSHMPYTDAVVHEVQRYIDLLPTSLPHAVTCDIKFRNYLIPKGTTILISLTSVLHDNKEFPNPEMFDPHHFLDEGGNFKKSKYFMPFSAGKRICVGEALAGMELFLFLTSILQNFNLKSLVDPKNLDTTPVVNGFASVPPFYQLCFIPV

In the case of `CCCCC(C)C=C1CN2CCCC2C(C)(O)C1` (stereo not shown) [PTX 251D, pumiliotoxin (PTX 251D)], the “clearance of PTX 251D by CYP1A2” value in data set [1] is given as “minimal clearance”. In addition, in data set [2], the “clearance of PTX 251D by CYP2B6” value is given as “minimal clearance”. Further, the “clearance of PTX 251D by CYP2C8” value in data set [3] was “minimal clearance”. Also, in data set [4], the “clearance of PTX 251D by CYP2C9” value is recorded as “minimal clearance”. In addition, the “PTX 251D remaining after incubation with CYP2D6” value in data set [5] (after 15 minutes) is reported as “most of the initial compound depleted”. Besides, in data set [5] (percent compound remaining at 0-60 minutes, HPLC-MS/MS), the “clearance of PTX 251D by CYP2D6” value is recorded as “rapid clearance”. For the same compound, in data set [6], the “clearance of PTX 251D by CYP3A4” value is “minimal clearance”.
